Read-outs that look alike come from different tables or passages of the source.
Legend:
[1] = target: T1, GRK5 (Homo sapiens, UniProt P34947); assay: IC50 determination of compounds inhibiting GRK5 by Millipore KinaseProfiler (radiometric filtration binding assay); format: biochemical; details: 2 mg/mL casein, 40 minutes at room temperature
T1 construct: purchased Millipore
Procedure: IC50 values are determined by a radiometric based filtration binding assay, namely Millipore KinaseProfiler™. GRK5 is incubated with 8 mM MOPS pH 7.0, 0.2 mM EDTA, 2 mg/mL casein, 10 mM MgAcetate and […] (specific activity approx. 500 cpm/pmol, concentration as required). The reaction is initiated by the addition of the MgATP mix. After incubation for 40 minutes at room temperature, the reaction is stopped by the addition of 3 % phosphoric acid solution. 10 µL of the reaction is then spotted onto a P30 filtermat and washed three times for 5 minutes in 75 mM phosphoric acid and once in methanol prior to drying and scintillation counting.

[2] = target: T2, full length GRK5 (Homo sapiens, UniProt P34947); assay: IC50 determination of compounds inhibiting GRK5 by ADP Glo Kinase Assay technology (Promega); format: biochemical
T2 construct: 6/2 fold concentrated full length GRK5 (Millipore, #14-714) in reaction buffer is added to each well; purchased Millipore 14-714
T2 sequence (P34947 whole entry): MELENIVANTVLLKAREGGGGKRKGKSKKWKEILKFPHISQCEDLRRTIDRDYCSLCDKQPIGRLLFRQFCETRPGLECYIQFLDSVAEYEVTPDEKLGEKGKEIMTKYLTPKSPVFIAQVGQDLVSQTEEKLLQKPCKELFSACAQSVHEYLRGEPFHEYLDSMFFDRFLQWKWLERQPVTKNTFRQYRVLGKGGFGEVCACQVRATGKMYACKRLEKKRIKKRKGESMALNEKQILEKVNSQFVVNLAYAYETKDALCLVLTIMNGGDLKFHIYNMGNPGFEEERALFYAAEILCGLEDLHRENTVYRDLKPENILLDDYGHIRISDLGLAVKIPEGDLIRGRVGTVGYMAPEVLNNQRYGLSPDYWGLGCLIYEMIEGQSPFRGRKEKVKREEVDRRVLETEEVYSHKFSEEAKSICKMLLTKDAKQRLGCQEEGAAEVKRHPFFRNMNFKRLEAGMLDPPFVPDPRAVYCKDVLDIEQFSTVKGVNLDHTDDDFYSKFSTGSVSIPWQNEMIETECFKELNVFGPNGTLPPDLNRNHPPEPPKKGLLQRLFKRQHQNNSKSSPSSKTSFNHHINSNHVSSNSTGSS

[3] = 20 nM GRK5, 18.7 µM ATP, 10 µM casein, 12 concentrations, triplicates, read-out: GRK5 IC50

T1 sequence (P34947 whole entry): as above

Q: Which results are given for CCC(NC(=O)c1ccc2c(c1)/C(=C/c1[nH]c(C)c(C(=O)N3CCN(C)CC3)c1C)C(=O)N2)c1ccc(Cl)cc1 (centres unmarked) [Compound 12, (3Z)-N-[1-(4-chlorophenyl)propyl]-3-({3,5-dimethyl-4-[(4-methylpiperazin-1-yl)carbonyl]-1H-pyrrol-2-yl}methylene)-2-oxoindoline-5-carboxamide]?
A: IC50 [1]: < 5 µM; IC50 [2, 3]: < 5 µM

Q: For Cc1[nH]c(/C=C2\C(=O)Nc3ccc(C(=O)N[C@H](C)c4ccccc4)cc32)c(C)c1C(=O)N1CCC[C@H]1CN1CCCC1 [Compound 16, (3Z)-3-[(3,5-dimethyl-4-{[(2S)-2-(pyrrolidin-1-ylmethyl)pyrrolidin-1-yl]carbonyl}-1H-pyrrol-2-yl)methylene]-2-oxo-N-[(1R)-1-phenylethyl]indoline-5-carboxamide], which IC50 [1] is on record?
A: < 5 µM

Q: With Cc1[nH]c(/C=C2\C(=O)Nc3ccc(C(=O)N[C@@H]4CCc5ccccc54)cc32)c(C)c1C(=O)N1CCC[C@@H]1CN1CCCC1 [Compound 30, (3Z)-N-[(1R)-2,3-dihydro-1H-inden-1-yl]-3-[(3,5-dimethyl-4-{[(2R)-2-(pyrrolidin-1-ylmethyl)pyrrolidin-1-yl]carbonyl}-1H-pyrrol-2-yl)methylene]-2-oxoindoline-5-carboxamide] as the compound, how does the IC50 [1] read?
A: 5 to 20 µM

Q: What about the IC50 [2, 3] of the same compound?
A: 5 to 20 µM

Q: What does the source list for CC[C@@H](NC(=O)c1ccc2c(c1)/C(=C/c1[nH]c(C)c(C(=O)N3CCC[C@H]3CN3CCCC3)c1C)C(=O)N2)c1ccccc1 [Compound 46, (3Z)-3-[(3,5-dimethyl-4-{[(2S)-2-(pyrrolidin-1-ylmethyl)pyrrolidin-1-yl]carbonyl}-1H-pyrrol-2-yl)methylene]-2-oxo-N-[(1R)-1-phenylpropyl]indoline-5-carboxamide]?
A: IC50 [1]: < 5 µM; IC50 [2, 3]: < 5 µM

Q: For CC[C@H](NC(=O)c1ccc2c(c1)/C(=C/c1[nH]c(C)c(C(=O)N3CCC[C@H]3CN3CCCC3)c1C)C(=O)N2)c1ccccc1 [Compound 47, (3Z)-3-[(3,5-dimethyl-4-{[(2S)-2-(pyrrolidin-1-ylmethyl)pyrrolidin-1-yl]carbonyl}-1H-pyrrol-2-yl)methylene]-2-oxo-N-[(1S)-1-phenylpropyl]indoline-5-carboxamide], which IC50 [1] is on record?
A: 5 to 20 µM

Q: What about the IC50 [2, 3] of the same compound?
A: 5 to 20 µM

Q: For CC[C@@H](NC(=O)c1ccc2c(c1)/C(=C/c1[nH]c(C)c(C(=O)N3CCC[C@@H]3CN3CCCC3)c1C)C(=O)N2)c1ccccc1 [Compound 48, (3Z)-3-[(3,5-dimethyl-4-{[(2R)-2-(pyrrolidin-1-ylmethyl)pyrrolidin-1-yl]carbonyl}-1H-pyrrol-2-yl)methylene]-2-oxo-N-[(1R)-1-phenylpropyl]indoline-5-carboxamide], which IC50 [1] is on record?
A: < 5 µM

Q: What about the IC50 [2, 3] of the same compound?
A: < 5 µM

Q: With CC[C@H](NC(=O)c1ccc2c(c1)/C(=C/c1[nH]c(C)c(C(=O)N3CCC(N4CCN(C)CC4)CC3)c1C)C(=O)N2)c1ccccc1 [Compound 52, (3Z)3-[(3,5-dimethyl-4-{[4-(4-methylpiperazin-1-yl)piperidin-1-yl]carbonyl}-1H-pyrrol-2-yl)methylene]-2-oxo-N-[(1S)-1-phenylpropyl]indoline-5-carboxamide] as the compound, how does the IC50 [1] read?
A: > 30 µM

Q: What about the IC50 [2, 3] of the same compound?
A: > 30 µM

Q: Which results are given for CC[C@@H](NC(=O)c1ccc2c(c1)/C(=C/c1[nH]c(C)c(C(=O)N3CCC(N4CCN(C)CC4)CC3)c1C)C(=O)N2)c1ccccc1 [Compound 53, (3Z)-3-[(3,5-dimethyl-4-{[4-(4-methylpiperazin-1-yl)piperidin-1-yl]carbonyl}-1H-pyrrol-2-yl)methylene]-2-oxo-N-[(1R)-1-phenylpropyl]indoline-5-carboxamide]?
A: IC50 [1]: < 5 µM; IC50 [2, 3]: 5 to 20 µM

Q: Which IC50 [1] does the source give for Cc1[nH]c(/C=C2\C(=O)Nc3ccc(C(=O)N[C@@H](C)c4ccccc4)cc32)c(C)c1C(=O)N1CCCCC1 [Compound 54, (3Z)-3-{[3,5-dimethyl-4-(piperidin-1-ylcarbonyl)-1H-pyrrol-2-yl]methylene}-2-oxo-N-[(1S)-1-phenylethyl]indoline-5-carboxamide] here?
A: > 30 µM

Q: And the IC50 [2, 3]?
A: > 30 µM

Q: Which results are given for Cc1[nH]c(/C=C2\C(=O)Nc3ccc(C(=O)N[C@H](C)c4cccc(Cl)c4)cc32)c(C)c1C(=O)N1CCCCC1 [Compound 55, (3Z)-N-[(1R)-1-(3-chlorophenyl)ethyl]-3-{[3,5-dimethyl-4-(piperidin-1-ylcarbonyl)-1H-pyrrol-2-yl]methylene}-2-oxoindoline-5-carboxamide]?
A: IC50 [1]: < 5 µM; IC50 [2, 3]: < 5 µM

Q: For Cc1[nH]c(/C=C2\C(=O)Nc3ccc(C(=O)N[C@@H](C)c4cccc(Cl)c4)cc32)c(C)c1C(=O)N1CCCCC1 [Compound 56, (3Z)-N-[(1S)-1-(3-chlorophenyl)ethyl]-3-{[3,5-dimethyl-4-(piperidin-1-ylcarbonyl)-1H-pyrrol-2-yl]methylene}-2-oxoindoline-5-carboxamide], which IC50 [1] is on record?
A: > 30 µM

Q: What about the IC50 [2, 3] of the same compound?
A: > 30 µM

Q: With CC[C@H](NC(=O)c1ccc2c(c1)/C(=C/c1[nH]c(C)c(C(=O)N3CCCCC3)c1C)C(=O)N2)c1ccccc1 [Compound 57, (3Z)-3-{[3,5-dimethyl-4-(piperidin-1-ylcarbonyl)-1H-pyrrol-2-yl]methylene}-2-oxo-N-[(1S)-1-phenylpropyl]indoline-5-carboxamide] as the compound, how does the IC50 [1] read?
A: > 30 µM

Q: What about the IC50 [2, 3] of the same compound?
A: > 30 µM

Q: Which IC50 [2, 3] does the source give for CC[C@@H](NC(=O)c1ccc2c(c1)/C(=C/c1[nH]c(C)c(C(=O)NCCN(CC)CC)c1C)C(=O)N2)c1ccccc1 [Compound 61, (3Z)-3-[(4-{[2-(diethylamino)ethyl]carbamoyl}-3,5-dimethyl-1H-pyrrol-2-yl)methylene]-2-oxo-N-[(1R)-1-phenylpropyl]indoline-5-carboxamide] here?
A: < 5 µM

Q: CC[C@H](NC(=O)c1ccc2c(c1)/C(=C/c1[nH]c(C)c(C(=O)NCCN(CC)CC)c1C)C(=O)N2)c1ccccc1 [Compound 62, (3Z)-3-[(4-{[2-(diethylamino)ethyl]carbamoyl}-3,5-dimethyl-1H-pyrrol-2-yl)methylene]-2-oxo-N-[(1S)-1-phenylpropyl]indoline-5-carboxamide] was tested. Which IC50 [1] did it give?
A: > 30 µM

Q: And the IC50 [2, 3]?
A: > 30 µM

Q: Which results are given for CC[C@@H](NC(=O)c1ccc2c(c1)/C(=C/c1[nH]c(C)c(C(=O)N3CCCCC3)c1C)C(=O)N2)c1ccccc1 [Compound 63, (3Z)-3-{[3,5-dimethyl-4-(piperidin-1-ylcarbonyl)-1H-pyrrol-2-yl]methylene}-2-oxo-N-[(1R)-1-phenylpropyl]indoline-5-carboxamide]?
A: IC50 [1]: < 5 µM; IC50 [2, 3]: < 5 µM

Q: Cc1[nH]c(/C=C2\C(=O)Nc3ccc(C(=O)N[C@@H](C)c4ccc(F)cc4)cc32)c(C)c1C(=O)N1CCCCC1 [Compound 64, (3Z)-3-{[3,5-dimethyl-4-(piperidin-1-ylcarbonyl)-1H-pyrrol-2-yl]methylene}-N-[(1S)-1-(4-fluorophenyl)ethyl]-2-oxoindoline-5-carboxamide] was tested. Which IC50 [1] did it give?
A: > 30 µM

Q: And the IC50 [2, 3]?
A: > 30 µM

Q: For COc1ccc([C@H](C)NC(=O)c2ccc3c(c2)/C(=C/c2[nH]c(C)c(C(=O)N4CCCCC4)c2C)C(=O)N3)cc1 [Compound 65, (3Z)-3-{[3,5-dimethyl-4-(piperidin-1-ylcarbonyl)-1H-pyrrol-2-yl]methylene}-N-[(1S)-1-(4-methoxyphenyl)ethyl]-2-oxoindoline-5-carboxamide], which IC50 [1] is on record?
A: > 30 µM

Q: What about the IC50 [2, 3] of the same compound?
A: < 5 µM

Q: Cc1[nH]c(/C=C2\C(=O)Nc3ccc(C(=O)N[C@H](C)c4ccc(Cl)cc4)cc32)c(C)c1C(=O)N1CCCC1 [Compound 67, (3Z)-N-[(1R)-1-(4-chlorophenyl)ethyl]-3-{[3,5-dimethyl-4-(pyrrolidin-1-ylcarbonyl)-1H-pyrrol-2-yl]methylene}-2-oxoindoline-5-carboxamide] was tested. Which IC50 [2, 3] did it give?
A: < 5 µM

Q: CC[C@@H](NC(=O)c1ccc2c(c1)/C(=C/Nc1ccc(CN3CCCCC3)cc1)C(=O)N2)c1ccccc1 [Compound 69, (3Z)-2-oxo-N-[(1R)-1-phenylpropyl]-3-({[4-(piperidin-1-ylmethyl)phenyl]amino}methylene)-indoline-5-carboxamide] was tested. Which IC50 [2, 3] did it give?
A: < 5 µM

Q: For COc1ccc([C@@H](C)NC(=O)c2ccc3c(c2)/C(=C/Nc2ccc(CN4CCCCC4)cc2)C(=O)N3)cc1 [Compound 70, (3Z)-N-[(1R)-1-(4-methoxyphenyl)ethyl]-2-oxo-3-({[4-(piperidin-1-ylmethyl)phenyl]amino}methylene)indoline-5-carboxamide], which IC50 [1] is on record?
A: < 5 µM

Q: What about the IC50 ([2]; read-out: GRK5 IC50, 20 nM GRK5, 18.7 µM ATP, 10 µM casein, 12 concentrations, triplicates) of the same compound?
A: < 5 µM

Q: Which results are given for C[C@@H](c1ccccc1)N(C)C(=O)c1ccc2c(c1)/C(=C/Nc1ccc(CN3CCCCC3)cc1)C(=O)N2 [Compound 71, (3Z)-N-methyl-2-oxo-N-[(1S)-1-phenylethyl]-3-({[4-(piperidin-1-ylmethyl)phenyl]amino}methylene)indoline-5-carboxamide]?
A: IC50 [1]: < 5 µM; IC50 [2, 3]: < 5 µM

Q: C[C@@H](NC(=O)c1ccc2c(c1)/C(=C/Nc1ccc(CN3CCCCC3)cc1)C(=O)N2)c1ccccc1 [Compound 78, (3Z)-2-oxo-N-[(1R)-1-phenylethyl]-3-({[4-(piperidin-1-ylmethyl)phenyl]amino}methylene)indoline-5-carboxamide] was tested. Which IC50 [2, 3] did it give?
A: < 5 µM

Q: Which IC50 [2, 3] does the source give for COc1cccc([C@@H](C)NC(=O)c2ccc3c(c2)/C(=C/Nc2ccc(CN4CCCCC4)cc2)C(=O)N3)c1 [Compound 79, (3Z)-N-[(1R)-1-(3-methoxyphenyl)ethyl]-2-oxo-3-({[4-(piperidin-1-ylmethyl)phenyl]amino}methylene)indoline-5-carboxamide] here?
A: < 5 µM

Q: For C[C@@H](NC(=O)c1ccc2c(c1)/C(=C/Nc1ccc(CN3CCCCC3)cc1)C(=O)N2)c1cccc(Cl)c1 [Compound 80, (3Z)-N-[(1R)-1-(3-chlorophenyl)ethyl]-2-oxo-3-({[4-(piperidin-1-ylmethyl)phenyl]amino}methylene)indoline-5-carboxamide], which IC50 [2, 3] is on record?
A: < 5 µM

— patent EP2837626A1, “Indolinone derivatives as GRK5 modulators” (Max-Planck-Gesellschaft zur Förderung der Wissenschaften …, priority 2013, dated 2015)
